Experimental data: patent publication US7196074B2, “Methods of making, using and pharmaceutical formulations comprising 7α, 11β-dimethyl-17β-hydroxyestra-4, 14-dien-3-one and 17 esters thereof” (The United States of America as represented by the …, priority 2000, dated 2007)

How the values were obtained:
Type in all cases: in vivo, Sprague-Dawley rats
ventral prostate weight [1] = test: Oral androgenic potency, ventral prostate weight assay in orchidectomized immature rats (gavage daily for seven days); conditions: for oral activity relative to methyltestosterone (potency ratio): oral administration, summary statement, standard methyltestosterone; for oral androgenic activity, times as potent as methyltestosterone: gavage daily for 7 days in 10% ethanol/sesame oil (oily carrier), ventral prostate weight
Protocol: (§1) Immature (about 21-day-old) Sprague-Dawley rats were orchidectomized under anesthesia, and randomly assignee to groups of ten animals for each dose level of the active undergoing testing. Each active was dissolved in 10% ethanol/sesame oil and administered by gavage (oral) each day for seven days beginning on the date of the orchidectomy. The animals were sacrificed 24 hours after the last dose, and the ventral prostate and seminal vesicles were excised, cleaned of fat and connective tissue, blotted on moist filter paper and weighed to the nearest 0.1 mg. See, e.g., Hershberger, L. et al, Myotrophic Activity of 19-nortestosterone And Other Steroids Determined By Modified Levator And Muscle Method, Proc. Soc. Exptl. Biol. Med 83 175–180 (1953). Regression analysis was performed by conventional methods using a PROPHET data management system. See, e.g., Bliss, C., The Statistics of Bioassay (Academic Press, New York, 1952); Hollister, C., Nucleic Acids Res. 16 1873–75 (1988). Ventral prostate weight was used as the endpoint because it is the sensitive organ to androgenic stimulation.
as §1, with “(oral) or subcutaneous injection” for “(oral)”, “mg.” for “mg. See, e.g., Hershberger, L. et al, Myotrophic Activity of 19-nortestosterone And Other Steroids Determined By Modified Levator And Muscle Method, Proc. Soc. Exptl. Biol. Med 83 175–180 (1953).”, “system.” for “system. See, e.g., Bliss, C., The Statistics of Bioassay (Academic Press, New York, 1952); Hollister, C., Nucleic Acids Res. 16 1873–75 (1988).”
Immature (about 21-day-old) Sprague-Dawley rats were orchidectomized under anesthesia, and randomly assignee to groups of ten animals for each dose level of the active undergoing testing. Four dosage forms were prepared. The first two forms constituted a solution of each active in 10% ethanol/sesame oil. The third and fourth dosage forms constituted a suspension of each active in an aqueous carrier (as described in Example 2, supra). These dosage forms were then administered by gavage (oral) to separate animal groups each day for seven days beginning on the date of the orchidectomy. Each carrier was also administered (alone) to separate groups of animals as a control. The animals were sacrificed 24 hours after the last dose, and the ventral prostate and seminal vesicles were excised, cleaned of fat and connective tissue, blotted on moist filter paper and weighed to the nearest 0.1 mg. See, e.g., Hershberger, L. et al, Myotrophic Activity of 19-nortestosterone And Other Steroids Determined By Modified Levator And Muscle Method, Proc. Soc. Exptl. Biol. Med. 83 175–180 (1953). Regression analysis was performed by conventional methods using a PROPHET data management system. See, e.g., Bliss, C., The Statistics of Bioassay (Academic Press, New York, 1952); Hollister, C., Nucleic Acids Res. 16 1873–75 (1988). Ventral prostate weight was used as the endpoint because it is the sensitive organ to androgenic stimulation.
Immature (about 21 day old) Sprague male rats were orchidectomized under anesthesia, and randomly assignee to groups often animals for each dose level of the active undergoing testing. Animals were maintained under standard conditions of housing and had free access to food and water. Illumination was controlled for 14 hour periods of light and 10 hours of darkness. Each active was dissolved in 10% ethanol/sesame oil and administered by gavage (oral) each day for seven days beginning on the date of the orchidectomy. […]

ventral prostate weight [2] = test: Subcutaneous androgenic potency, ventral prostate weight assay in orchidectomized immature rats (injection daily for seven days); conditions: ventral prostate weight assay following subcutaneous administration; alcohol of G = 1.0 (assigned); value is for the free alcohol of the listed ester
Protocol: as §1, with “(oral) or subcutaneous injection” for “(oral)”, “mg.” for “mg. See, e.g., Hershberger, L. et al, Myotrophic Activity of 19-nortestosterone And Other Steroids Determined By Modified Levator And Muscle Method, Proc. Soc. Exptl. Biol. Med 83 175–180 (1953).”, “system.” for “system. See, e.g., Bliss, C., The Statistics of Bioassay (Academic Press, New York, 1952); Hollister, C., Nucleic Acids Res. 16 1873–75 (1988).”
as §1, with “subcutaneous injection” for “gavage (oral)”, “Bid. Med.” for “Biol. Med”
Immature (about 22-day-old) Sprague-Dawley male rats were orchidectomized under anesthesia, and randomly assignee to groups of ten animals for each dose level of the active undergoing testing. […] Illumination was controlled for 14 hour periods of light and 10 hours of darkness.
Each active was administered by subcutaneous injection of 0.6 mg of test material in aqueous suspending vehicle (ASV) and/or an oily vehicle (10% ethanol/sesame oil) on the day of surgery. Testosterone enanthate in sesame oil was used as a standard. The ventral prostate and seminal vesicles were excised, cleaned of fat and connective tissue, blotted on moist filter paper and weighed to the nearest 0.1 mg. Regression analysis was performed by conventional methods using a PROPHET data management system. Ventral prostate weight was used as the endpoint because it is the sensitive organ to androgenic stimulation.

ventral prostate weight [3] = test: Duration of androgenic activity after subcutaneous injection, ventral prostate weight over weeks in orchidectomized immature rats; conditions: for area under the curve (AUC, trapezoidal rule) of ventral prostate weight: 12 week period, FIG. 22
Protocol: Immature (about 21-day-old) Sprague-Dawley rats were orchidectomized under anesthesia, and randomly assignee to groups of ten animals for each dose level of the active undergoing testing. Each active was administered by subcutaneous injection each day for seven days beginning on the date of the orchidectomy. The animals were sacrificed 24 hours after the last dose, and the ventral prostate and seminal vesicles were excised, cleaned of fat and connective tissue, blotted on moist filter paper and weighed to the nearest 0.1 mg. Regression analysis was performed by conventional methods using a PROPHET data management system. Ventral prostate weight was used as the endpoint because it is the sensitive organ to androgenic stimulation.
Except for testosterone enanthate, each active was formulated in two different carriers: (1) an aqueous suspension and (2) in sesame oil. Testosterone enanthate was formulated using the sesame oil carrier only, because it exists as a liquid at room temperature and could not therefore be formulated as an aqueous suspension.
(§2) The carrier used to provide the aqueous suspension was formulated as follows: 1 g benzyl alcohol, 0.5 g sodium carboxylethyl cellulose 50, 0.376 g disodium hydrogen phosphate dihydrate, 1.495 g sodium dihydrogen phosphate dihydrate, with water for injection (WFI) being added to bring volume of the carrier up to 100 ml.
Each formulation was prepared at a concentration of 0.6 mg/0.2 ml.
Immature (about 21-day-old) Sprague-Dawley rats were orchidectomized under anesthesia, and randomly assignee to groups of 40 or more. Animals received a single subcutaneous injection of 0.6 mg of each ester in 0.2 ml of an aqueous suspending carrier and/or oily carrier (10% ethanol/90% sesame oil or ethyl oleate) on the date of the orchidectomy. In cases where the ester was not solid at room temperature, 10% ethanol/sesame oil or ethyl oleate was used as the carrier. In this example, the carrier used to provide the aqueous suspension was formulated as follows: 1 g benzyl alcohol, 0.5 g sodium carboxylethyl cellulose 50, 0.376 g disodium hydrogen phosphate dihydrate, 1.495 g sodium dihydrogen phosphate dihydrate, with water for injection (WFI) being added to bring volume of the carrier up to 100 ml.
Five animals from each group were sacrificed at weekly or biweekly intervals, and the ventral prostate and seminal vesicles were excised, cleaned of fat and connective tissue, blotted on moist filter paper and weighed to the nearest 0.1 mg.
Ventral prostate weight was used as the endpoint because it is the sensitive organ to androgenic stimulation. Regression analysis was performed by conventional methods using the PROPHET data management system previously identified.
Immature (about 21-day-old) Sprague-Dawley rats were orchidectomized under anesthesia, and randomly assignee to groups of 40 or more. Animals received a single subcutaneous injection of 0.6 mg of the undecanoate in 0.2 ml of an aqueous suspending carrier and/or oily carrier (10% ethanol/90% sesame oil containing 5 mg/ml chlorobutanol as a preservative, or ethyloleate) on the date of the orchidectomy. The enanthate ester was formulated using the 10% ethanol/sesame oil or ethyloleate carrier as a first standard, with the 10% ethanol/sesame oil carrier used as a second standard.
as §2, with “In this example, the” for “The”
Immature (about 21-day-old) Sprague-Dawley rats were orchidectomized under anesthesia, and randomly assignee to groups of 40 or more. […] The enanthate ester was formulated using the 10% ethanol/sesame oil or ethyloleate carrier as a first standard, with the 10% ethanol/sesame oil carrier used as a second standard.

| SMILES | oral activity relative to methyltestosterone (potency ratio) (ventral prostate weight [1]) | Androgenic Potency (activity of corresponding alcohol) (ventral prostate weight [2]) | also measured |
| --- | --- | --- | --- |
| CCCCCCCCCCC(=O)O[C@H]1CC[C@H]2[C@H]3[C@H]([C@@H](C)C[C@]12C)[C@H]1CCC(=O)C=C1C[C@H]3C | about twice | – | – |
| CCCCCCCCCCC(=O)O[C@H]1CC=C2[C@H]3[C@H]([C@@H](C)C[C@@]21C)[C@H]1CCC(=O)C=C1C[C@H]3C | at least about twice | – | – |
| CCCCC1CCC(C(=O)O[C@H]2CC=C3[C@H]4[C@H]([C@@H](C)C[C@@]32C)[C@H]2CCC(=O)C=C2C[C@H]4C)CC1 (stereo partly shown) | at least about six times | – | – |
| CCCC[C@H]1CC[C@H](C(=O)O[C@H]2CC[C@H]3[C@H]4[C@H](CC[C@]23C)[C@H]2CCC(=O)C=C2C[C@H]4C)CC1 [A, 7α-Methyl-19-nortestosterone-17β-bucyclate] | – | 8.1^3 | – |
| CCCC[C@H]1CC[C@H](C(=O)O[C@H]2CC[C@H]3[C@H]4[C@H](CC[C@]23C)[C@H]2CCC(=O)C[C@@H]2C[C@H]4C)CC1 [B, 7α-Methyl-5α-dihydro-19-nortestosterone-17β-bucyclate] | – | 1.2 | – |
| CCCC[C@H]1CC[C@H](C(=O)O[C@H]2CC=C3[C@@H]4[C@H](C)CC5=CC(=O)CC[C@]5(C)[C@H]4CC[C@@]32C)CC1 [C, 7α-Methyl-14-dehydro-testosterone-17β-bucyclate] | – | 61.1 | – |
| CCCC[C@H]1CC[C@H](C(=O)O[C@H]2CC=C3[C@H]4[C@H](CC[C@@]32C)[C@H]2CCC(=O)C=C2C[C@H]4C)CC1 [CDB-4327A, 7α-Methyl-14-dehydro-19-nortestosterone-17β-bucyclate, reference compound] | – | – | ventral prostate weight over time after single subcutaneous injection (in words) (ventral prostate weight [3]; 0.6 mg in 0.2 ml oily carrier, up to 20 weeks, FIG. 9): surprising stimulation of ventral prostate size over the entire 20-week observation period |
| C[C@@H]1CC2=CC(=O)CC[C@@H]2[C@@H]2[C@@H]1C1=CC[C@H](O)[C@@]1(C)C[C@@H]2C [Compound III, 7α,11β-dimethyl-17β-hydroxyestra-4,14-dien-3-one] | ~1.96 | – | – |
| CCCCCCCCCCC(=O)O[C@H]1CC=C2[C@H]3[C@H]([C@@H](C)C[C@@]21C)[C@H]1CCC(=O)C=C1C[C@H]3C [Compound IV, 7α,11β-dimethyl-17β-hydroxyestra-4,14-dien-3-one 17-undecanoate] | – | – | oral androgenic activity, times as potent as methyltestosterone (ventral prostate weight [1]): about two to about nine times; duration of activity on parenteral administration (summary in words) (ventral prostate weight [3]; parenteral administration, relative to other actives): not long-acting |
| CCCCC1CCC(C(=O)O[C@H]2CC=C3[C@H]4[C@H]([C@@H](C)C[C@@]32C)[C@H]2CCC(=O)C=C2C[C@H]4C)CC1 (stereo partly drawn) [Compound V, 7α,11β-dimethyl-17β-hydroxyestra-4,14-dien-3-one 17β-4-n-butylcyclohexanecarboxylate] | – | – | oral androgenic activity, times as potent as methyltestosterone (ventral prostate weight [1]): about six to about eighteen times; ventral prostate weight over time after single subcutaneous injection (in words) (ventral prostate weight [3]; 0.6 mg in 0.2 ml aqueous vehicle): most dramatic increases and maintenance of ventral prostate weight; AUC of ventral prostate weight, times greater than for testosterone enanthate in oily carrier (ventral prostate weight [3]; active in aqueous vehicle versus testosterone enanthate in sesame oil/oily carrier, single subcutaneous 0.6 mg): about 3 times; area under the curve (AUC, trapezoidal rule) of ventral prostate weight (ventral prostate weight [3]; single subcutaneous 0.6 mg in aqueous vehicle): 1521 mg-weeks |
| CCCCC1CCC(C(=O)OC2CCCC3C4C(C)CC5=CC(=O)CCC5(C)C4CCC23C)CC1 [D, 7α-Methyl-D-homo-testosterone-17β-bucyclate] | – | 36.4–61.7^3 | – |
| CCCCCCC(=O)O[C@H]1CC[C@H]2[C@@H]3CCC4=CC(=O)CC[C@]4(C)[C@H]3CC[C@]12C [testosterone enanthate, reference compound] | – | – | area under the curve (AUC, trapezoidal rule) of ventral prostate weight (ventral prostate weight [3]; single subcutaneous 0.6 mg in oily carrier): 513 mg-weeks |
